Measurements reported in patent US9695154B2, “Heteroaryl inhibitors of sumo activating enzyme” (MILLENNIUM PHARMACEUTICALS, INC., priority 2013, dated 2017).

Target: T1, recombinant human SAE enzyme (Homo sapiens, UniProt Q9UBT2)
T1 sequence (Q9UBT2 1-640): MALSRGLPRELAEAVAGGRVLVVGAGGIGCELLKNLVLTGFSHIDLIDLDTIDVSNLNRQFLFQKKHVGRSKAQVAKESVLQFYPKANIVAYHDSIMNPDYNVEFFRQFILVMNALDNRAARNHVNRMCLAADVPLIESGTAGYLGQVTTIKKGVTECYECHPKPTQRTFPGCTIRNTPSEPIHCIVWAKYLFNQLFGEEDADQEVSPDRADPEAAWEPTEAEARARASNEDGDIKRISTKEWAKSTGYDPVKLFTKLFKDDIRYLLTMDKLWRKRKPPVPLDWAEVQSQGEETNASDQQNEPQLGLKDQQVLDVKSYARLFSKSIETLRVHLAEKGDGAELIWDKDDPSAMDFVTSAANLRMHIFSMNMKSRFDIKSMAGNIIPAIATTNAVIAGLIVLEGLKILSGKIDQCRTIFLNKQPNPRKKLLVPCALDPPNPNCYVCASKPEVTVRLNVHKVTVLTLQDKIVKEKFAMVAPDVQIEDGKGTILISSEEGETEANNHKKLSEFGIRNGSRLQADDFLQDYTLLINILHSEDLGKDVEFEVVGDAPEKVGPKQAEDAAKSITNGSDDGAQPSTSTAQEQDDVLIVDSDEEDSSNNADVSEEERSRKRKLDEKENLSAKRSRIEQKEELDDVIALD
T1 sequence (Q9UBE0 1-346 partner): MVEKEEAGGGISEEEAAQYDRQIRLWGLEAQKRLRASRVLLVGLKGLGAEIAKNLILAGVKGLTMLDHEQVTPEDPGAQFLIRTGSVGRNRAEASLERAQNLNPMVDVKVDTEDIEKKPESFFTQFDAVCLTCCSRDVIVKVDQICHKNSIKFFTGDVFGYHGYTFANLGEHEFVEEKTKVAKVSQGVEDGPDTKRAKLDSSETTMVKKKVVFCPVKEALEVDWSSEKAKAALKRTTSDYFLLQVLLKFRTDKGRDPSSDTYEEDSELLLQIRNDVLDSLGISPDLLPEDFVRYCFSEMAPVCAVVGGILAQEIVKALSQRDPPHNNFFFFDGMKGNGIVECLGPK
Test: SAE HTRF Enzyme Assay
Type: biochemical
Conditions: for IC50: class symbols A-C; for Percent Inhibition / inhibition at 0.111 µM: compound concentration 0.111 μM; for inhibition at 0.111 µM: read-out: Percent Inhibition
Procedure, shortened: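 SAE 0.11 nM; ATP 0.5 μM; Sumo-Flag 0.125 μM; Ubc9-GST 0.01 μM; 250 μM GSH, 5 mM MgCl2, pH 7.5. 105 min, 24° C. EDTA/KF stop plus Eu/APC antibodies, 2 h, TR-FRET. % inhibition or IC50.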

SMILES | IC50 | Percent Inhibition (0.111 µM) | inhibition at 0.111 µM | Percent Inhibition
Cc1cc(C(=O)c2cncnc2N[C@@H]2C[C@H](COS(N)(=O)=O)[C@@H](O)C2)nn1C(C)c1cccc(Cl)c1 (single isomer, unassigned) [Compound I-365, [(1R,2S,4R)-4-{[5-({1-[(1S)-1-(3-chlorophenyl)ethyl]-5-methyl-1H-pyrazol-3-yl}carbonyl)pyrimidin-4-yl]amino}-2-hydroxycyclopentyl]methyl sulfamate or [(1R,2S,4R)-4-{[5-({1-[(1R)-1-(3-chlorophenyl)ethyl]-5-methyl-1H-pyrazol-3-yl}carbonyl)pyrimidin-4-yl]amino}-2-hydroxycyclopentyl]methyl sulfamate] | 10 to 100 nM | 79% | – | –
CC(c1cccc(Br)n1)n1ccc(C(=O)c2cncnc2N[C@@H]2C[C@H](COS(N)(=O)=O)[C@@H](O)C2)n1 (single isomer, unassigned) [Compound I-366, [(1R,2S,4R)-4-{[5-({1-[(1S)-1-(6-bromopyridin-2-yl)ethyl]-1H-pyrazol-3-yl}carbonyl)pyrimidin-4-yl]amino}-2-hydroxycyclopentyl]methyl sulfamate or [(1R,2S,4R)-4-{[5-({1-[(1R)-1-(6-bromopyridin-2-yl)ethyl]-1H-pyrazol-3-yl}carbonyl)pyrimidin-4-yl]amino}-2-hydroxycyclopentyl]methyl sulfamate] | 10 to 100 nM | – | 92% | –
COC(C)c1cc(C(=O)c2cncnc2N[C@@H]2C[C@H](COS(N)(=O)=O)[C@@H](O)C2)nn1Cc1cccc(Br)c1 (single isomer, unassigned) [Compound I-369a, [(1R,2S,4R)-4-{[5-({1-(3-bromobenzyl)-5-[(1S)-1-methoxyethyl]-1H-pyrazol-3-yl}carbonyl)pyrimidin-4-yl]amino}-2-hydroxycyclopentyl]methyl sulfamate or [(1R,2S,4R)-4-{[5-({1-(3-bromobenzyl)-5-[(1R)-1-methoxyethyl]-1H-pyrazol-3-yl}carbonyl)pyrimidin-4-yl]amino}-2-hydroxycyclopentyl]methyl sulfamate] | < 10 nM | – | – | 98%
COC(C)c1cc(C(=O)c2cncnc2N[C@@H]2C[C@H](COS(N)(=O)=O)[C@@H](O)C2)nn1Cc1cccc(Br)c1 (single isomer, unassigned) [Compound I-369b, [(1R,2S,4R)-4-{[5-({1-(3-bromobenzyl)-5-[(1S)-1-methoxyethyl]-1H-pyrazol-3-yl}carbonyl)pyrimidin-4-yl]amino}-2-hydroxycyclopentyl]methyl sulfamate or [(1R,2S,4R)-4-{[5-({1-(3-bromobenzyl)-5-[(1R)-1-methoxyethyl]-1H-pyrazol-3-yl}carbonyl)pyrimidin-4-yl]amino}-2-hydroxycyclopentyl]methyl sulfamate] | < 10 nM | – | – | 98%
NS(=O)(=O)OC[C@H]1C[C@@H](Nc2ncncc2C(=O)c2ccn(S(=O)(=O)c3cccc(Br)c3)n2)[C@H](O)[C@@H]1O [Compound I-1, [(1R,2R,3S,4R)-4-{[5-({1-[(3-bromophenyl)sulfonyl]-1H-pyrazol-3-yl}carbonyl)pyrimidin-4-yl]amino}-2,3-dihydroxycyclopentyl]methyl sulfamate] | < 10 nM | – | 98% | –
NS(=O)(=O)OC[C@@H]1C[C@@H](Nc2ncncc2C(=O)c2ccn(Cc3cccc(Br)c3)n2)C[C@@H]1O [Compound I-2, {(1S,2S,4R)-4-[(5-{[1-(3-bromobenzyl)-1H-pyrazol-3-yl]carbonyl}pyrimidin-4-yl)amino]-2-hydroxycyclopentyl}methyl sulfamate] | – | – | 99% | –
NS(=O)(=O)OC[C@H]1C[C@@H](Nc2ncncc2C(=O)c2ccn(Cc3cccc(C(F)(F)F)n3)n2)C[C@@H]1O [Compound I-3, [(1R,2S,4R)-2-hydroxy-4-({5-[(1-{[6-(trifluoromethyl)pyridin-2-yl]methyl}-1H-pyrazol-3-yl)carbonyl]pyrimidin-4-yl}amino)cyclopentyl]methyl sulfamate] | < 10 nM | – | 98% | –
Cc1ccn(CCn2ccc(C(=O)c3cncnc3N[C@@H]3C[C@H](COS(N)(=O)=O)[C@@H](O)[C@H]3O)n2)n1 [Compound I-4, [(1R,2R,3S,4R)-2,3-dihydroxy-4-{[5-({1-[2-(3-methyl-1H-pyrazol-1-yl)ethyl]-1H-pyrazol-3-yl}carbonyl)pyrimidin-4-yl]amino}cyclopentyl]methyl sulfamate] | 10 to 100 nM | – | 80% | –
NS(=O)(=O)OC[C@H]1C[C@@H](Nc2ncncc2C(=O)c2ccn(CC3=CCOCC3)c2)[C@@H](F)[C@@H]1O [Compound I-5, {(1R,2R,3R,4R)-4-[(5-{[1-(3,6-dihydro-2H-pyran-4-ylmethyl)-1H-pyrrol-3-yl]carbonyl}pyrimidin-4-yl)amino]-3-fluoro-2-hydroxycyclopentyl}methyl sulfamate] | 10 to 100 nM | – | 89% | –
Cc1cc(C(=O)c2cncnc2N[C@@H]2C[C@@H](COS(N)(=O)=O)[C@@H](O)C2)nn1Cc1cccc(Br)c1 [Compound I-6, {(1S,2S,4R)-4-[(5-{[1-(3-bromobenzyl)-5-methyl-1H-pyrazol-3-yl]carbonyl}pyrimidin-4-yl)amino]-2-hydroxycyclopentyl}methyl sulfamate] | < 10 nM | – | 99% | –
NS(=O)(=O)OC[C@H]1C[C@@H](Nc2ncncc2C(=O)c2ccn(Cc3cccc(C(F)(F)F)c3)c2)[C@@H](F)[C@@H]1O [Compound I-7, [(1R,2R,3R,4R)-3-fluoro-2-hydroxy-4-{[5-({1-[3-(trifluoromethyl)benzyl]-lH-pyrrol-3-yl}carbonyl)pyrimidin-4-yl]amino}cyclopentyl]methyl sulfamate] | < 10 nM | – | 99% | –
NS(=O)(=O)OC[C@H]1C[C@@H](Nc2ncncc2C(=O)c2ccn(Cc3cccc(Cl)n3)c2)[C@@H](F)[C@@H]1O [Compound I-8, [(1R,2R,3R,4R)-4-{[5-({1-[(6-Chloropyridin-2-yl)methyl]-1H-pyrrol-3-yl}carbonyl)pyrimidin-4-yl]amino}-3-fluoro-2-hydroxycyclopentyl]methyl sulfamate] | < 10 nM | – | 99% | –
NS(=O)(=O)OC[C@H]1C[C@@H](Nc2ncncc2C(=O)c2ccn(Cc3cccc(Br)c3)n2)C[C@@H]1O [Compound I-11, {(1R,2S,4R)-4-[(5-{[1-(3-bromobenzyl)-1H-pyrazol-3-yl]carbonyl}pyrimidin-4-yl)amino]-2-hydroxycyclopentyl}methyl sulfamate] | – | – | 100% | –
NS(=O)(=O)OC[C@H]1C[C@@H](Nc2ncncc2C(=O)c2ccn(CC#CCC3CCOCC3)n2)C[C@@H]1O [Compound I-12, [(1R,2S,4R)-2-hydroxy-4-{[5-({1-[4-(tetrahydro-2H-pyran-4-yl)but-2-yn-1-yl]-1H-pyrazol-3-yl}carbonyl)pyrimidin-4-yl]amino}cyclopentyl]methyl sulfamate] | 100 to 1000 nM | – | 39% | –
NS(=O)(=O)OC[C@H]1C[C@@H](Nc2ncncc2C(=O)c2ccn(Cc3cccc(I)c3)c2)[C@@H](F)[C@@H]1O [Compound I-13, {(1R,2R,3R,4R)-3-fluoro-2-hydroxy-4-[(5-{[1-(3-iodobenzyl)-1H-pyrrol-3-yl]carbonyl}pyrimidin-4-yl)amino]cyclopentyl}methyl sulfamate] | < 10 nM | – | 100% | –
